Drawing on paper PMC3831706 (British Journal of Pharmacology, 2013), this text covers Ki for one compound.

The assay addresses T1, 5-HT3A receptor (Homo sapiens, UniProt P46098).
T1 construct: gene HTR3A
T1 sequence (P46098 24-478): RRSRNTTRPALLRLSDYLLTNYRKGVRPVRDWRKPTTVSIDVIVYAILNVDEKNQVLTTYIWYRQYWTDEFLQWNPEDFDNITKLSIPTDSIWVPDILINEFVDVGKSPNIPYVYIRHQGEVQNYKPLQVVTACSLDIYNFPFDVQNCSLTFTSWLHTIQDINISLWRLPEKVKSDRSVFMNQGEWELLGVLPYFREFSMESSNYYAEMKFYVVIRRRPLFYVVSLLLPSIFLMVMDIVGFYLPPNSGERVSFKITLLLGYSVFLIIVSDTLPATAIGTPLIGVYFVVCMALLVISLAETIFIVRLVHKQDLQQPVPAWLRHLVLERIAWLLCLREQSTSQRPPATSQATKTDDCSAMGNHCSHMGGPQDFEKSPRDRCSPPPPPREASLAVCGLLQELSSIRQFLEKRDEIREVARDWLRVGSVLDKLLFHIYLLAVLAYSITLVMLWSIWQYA
Put plainly: cell-based.

Each structure is given as a SMILES string.

`O=C1c2cccc3c2[C@H](CCC3)CN1[C@@H]1CN2CCC1CC2` [PAL, palonosetron] had a Ki of 0.22 ± 0.07 nM.

As a reminder, the Ki is a measure of affinity in units of concentration, obtained from inhibition or displacement.
